The experiment relates to green peach aphid (Myzus persicae). Nature of the experiment: Myzus test (MYZUPE spray treatment). It is filed as in vivo. As to conditions: after 5 days; application rate 500 g/ha; spray on Chinese cabbage discs; 100% = all aphids killed. As for the experimental part:
Myzus Test (MYZUPE Spray Treatment) Solvent: 78 parts by weight of acetone and 1.5 parts by weight of dimethylformamide Emulsifier: 0.5 part by weight of alkylaryl polyglycol ether To prepare an active ingredient formulation, 1 part by weight of active ingredient is mixed with the specified amounts of solvent and emulsifier, and the concentrate is diluted to the desired concentration with emulsifier-containing water. Discs of Chinese cabbage (Brassica pekinensis) infested with all stages of the green peach aphid (Myzus persicae) are sprayed with an active ingredient formulation of the desired concentration. After the desired time, the efficacy in % is determined. 100% means that all aphids have been killed; 0% means that no aphids have been killed.

The values that follow come from patent US8343893B2, “Substituted enaminocarbonyl compounds” (Bayer Cropscience AG, priority 2009, dated 2013).

Compound `CC(=O)OCC(=CC(=O)OC(C)C)N(C)Cc1ccc(Cl)nc1` [Compound 1] registered an efficacy in % of 80%.
